Measured values from patent US10155751B2, “Pyrazolyl-substituted heteroaryls and their use as medicaments” (Boehringer Ingelheim International GmbH, priority 2015, dated 2018).
Where two headings read alike, the source gives them in different places.

Columns and labels:
[1] = molecular target: Recombinant human Aurora B (amino acids 1-344) (Homo sapiens (Human), UniProt Q96GD4); assay: Aurora B kinase test (ADP Glo); format: biochemical
Description: The activity of the Aurora B kinase protein was determined using the ADP Glo® Luminescence Kinase test (Promega; V9103X). In this homogeneous test the amount of ADP remaining after the kinase reaction is quantified by a luciferin-luciferase reaction using luminescence. The luminescence signal obtained correlates with the amount of ADP still present and thus correlates with the activity of the protein kinase.
The test compounds were dissolved in 100% DMSO at a concentration of 10 mM and diluted in DMSO to a concentration of 5 mM. Serial Dilution is done in 1:10 steps in 100% DMSO. All further dilutions of the substances were carried out with test buffer (50 mM Hepes, pH 7.5, 10 mM MgCl2, 1 mM EGTA, 60 μM Ultra Pure ATP, 0.01% Brij35, 0.1% BSA, 5 mM 8-Glycerophosphate) until a concentration was reached which was 2.5 times above the final test concentration (final concentration of the compounds: 50 μM to 0.005 nM). 4 μl aliquots of these dilutions were transferred into a 384-well Optiplate (Perkin Elmer, #6007290). His-Aurora B was diluted to 125 nM in the test buffer and 4 μl of this dilution were used in the kinase test (final concentration of Aurora B=50 nM in a total volume of 10 μl). After 15 minutes incubation at room temperature 2 μl of 250 μM substrate ([[…]]; University of Dundee) in test buffer were added to each well and the incubation was continued for a further 60 minutes at room temperature.
(§1) Positive controls are the reaction mixtures that contain no test substance; negative controls (blanks) are reaction mixtures that contain no kinase.
After 60 minutes, 10 μl ADP-Glo® solution (ADP-Glo Reagent #V912B Promega) (heated to room temperature) were added to each well and incubation was continued for a further 40. minutes. Then 20 μl Kinase detection mix (Detection Buffer #V913B Promega; Kinase Detection Substrate #V914B Promega) were added and incubated for 40 minutes at room temperature. The plates were read in Envision Luminescence Reader (Perkin-Elmer).
(§2) The output file of the reader is a csv file that contains the well number and measured RLU. For data evaluation and calculation, the measurement of the negative control was set as 0% ctrl and the measurement of the positive control was set as 100% ctrl. Based on this values the % value for the measurement of each substance concentration can be calculated using an Assay Explorer software (e.g. Accelrys). Normally, the % ctrl values calculated are between 0% and 100% values but may also occur outside these limits in individual cases based on variability or compound characteristics. The IC50-values were calculated from the % ctrl values using Assay Explorer software. Calculation: [y=(a−d)/(1+(x/c)^b)+d], a=low value, d=high value; x=conc M; c=IC50 M; b=hill; y=% ctrl.

[2] = molecular target: Recombinant human SYK (amino acids 342-635), GST-SYK kinase fusion protein (Homo sapiens (Human), UniProt P43405); assay: SYK kinase inhibition test (Kinase Glo luminescence); format: biochemical
Description: The catalytic activity of the GST-SYK kinase fusion protein was determined using the Kinase Glo® Luminescence Kinase test (Promega; V6712). In this homogeneous test the amount of ATP remaining after the kinase reaction is quantified by a luciferin-luciferase reaction using luminescence. The luminescence signal obtained correlates with the amount of ATP still present and thus correlates inversely with the activity of the kinase.
The test compounds were dissolved in 100% DMSO at a concentration of 10 mM and diluted in DMSO to a concentration of 1 mM. Serial Dilution is done in 100% DMSO. All further dilutions of the substances were carried out with test buffer (25 mM HEPES pH7.5; 25 mM MgCl2; 5 mM MnCl2; 50 mM KCl; 0.2% HSA; 0.01% CHAPS; 100 μM Na3VO4; 0.5 mM DTT). Dilution steps and concentration range were adapted according to need. 7 μl aliquots of these dilutions were transferred into a 384-well Optiplate (Perkin Elmer, #6007290). GST-SYK was diluted to 12 nM in the test buffer and 5 μl of this dilution were used in the kinase test (final concentration of SYK=4 nM in a total volume of 15 μl). After 15 minutes incubation at room temperature 3 μl of a mixture of 750 nM ATP and 100 μg/ml poly (L-Glutamic acid L-Tyrosine 4:1), Fluka #81357) in test buffer were added to each well and the incubation was continued for a further 60 minutes at room temperature.
as §1
After 60 minutes, 10 μl Kinase-Glo® solution (Promega, Cat. # V6712) (heated to room temperature) were added to each well and incubation was continued for a further 15 minutes. The plates were read in Envision Luminescence Reader (Perkin-Elmer).
as §2, with “measured relative light units (RLU).” for “measured RLU.”, “as 100%” for “as 0%”, “as 0%” for “as 100%”, “concentration was” for “concentration can be”, “software (Accelrys).” for “software (e.g. Accelrys).”, “Calculation: [y=(a−d)/(1+(x/c)^b)+d]” for “Calculation: [y=(a−d)/(1+(x/c)^b)+d],”
Satisfying SYK inhibitory capacities are represented by an IC50(SYK)-Value measured by this assay of <10 nMol.

[3] = read-out: AURB inhibition IC50-value (chapter 5.3)
[4] = read-out: IC50(SYK) in SYK-inhibition assay
[5] = read-out: SYK inhibition IC50-value (chapter 5.1)

Recombinant human Aurora B (amino acids 1-344), sequence (Q96GD4 whole entry, the tested form may be a part): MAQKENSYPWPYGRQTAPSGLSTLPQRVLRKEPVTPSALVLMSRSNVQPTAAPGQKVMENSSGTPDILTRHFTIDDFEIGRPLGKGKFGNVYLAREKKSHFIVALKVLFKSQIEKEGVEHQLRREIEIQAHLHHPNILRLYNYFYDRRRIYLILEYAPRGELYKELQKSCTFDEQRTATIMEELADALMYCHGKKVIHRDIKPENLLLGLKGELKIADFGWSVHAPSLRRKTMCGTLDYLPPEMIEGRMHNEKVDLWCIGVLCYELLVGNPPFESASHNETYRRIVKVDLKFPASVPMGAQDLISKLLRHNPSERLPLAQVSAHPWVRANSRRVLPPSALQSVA

Compound: C[C@@H](Oc1cc(-c2cnn(C(C)(C)C)c2)cc2ncn(C)c12)[C@H]1CNC(=O)C1 [example 3B.22 on page 219 of WO15017610, reference compound]
- selectivity ratio IC50(AURB)/IC50(SYK) [1]: 964
- IC50 [1, 3]: 771 nM
- IC50 ([1]; read-out: IC50(AURB)): 771 nM
- IC50 [2, 4]: < 10 nM
- IC50 [2, 5]: 0.8 nM

Compound: C[C@@H](Oc1nc(-c2cnn(C(C)(C)C)c2)cc2ncn(C)c12)[C@H]1CNC(=O)C1 [example 3A.02, on page 196 of WO15017610, reference compound]
- selectivity ratio IC50(AURB)/IC50(SYK) [1]: 891
- IC50 [1, 3]: 1690 nM
- IC50 ([1]; read-out: IC50(AURB)): 1690 nM
- IC50 [2, 4]: < 10 nM
- IC50 [2, 5]: 1.9 nM

Compound: Cc1c2c(O[C@H](C)[C@H]3CNC(=O)C3)cc(-c3cnn([C@@H]4CCOC(C)(C)C4)c3)cc2nn1C [Example 9, (R)-4-((R)-1-{6-[1-((R)-2,2-Dimethyl-tetrahydro-pyran-4-yl)-1H-pyrazol-4-yl]-2,3-dimethyl-2H-indazol-4-yloxy}-ethyl)-pyrrolidin-2-one]
- selectivity ratio IC50(AURB)/IC50(SYK) [1]: 21219
- IC50 [1, 3]: 23300 nM
- IC50 [2, 5]: 1.1 nM

Compound: Cc1cnn2cc(-c3cnn(C(C)(C)C)c3)nc(O[C@H](C)[C@H]3CNC(=O)C3)c12 [example 5.20 on page 506 of WO15017610, reference compound]
- selectivity ratio IC50(AURB)/IC50(SYK) [1]: 810
- IC50 [1, 3]: 162 nM
- IC50 ([1]; read-out: IC50(AURB)): 162 nM
- IC50 [2, 4]: < 10 nM
- IC50 [2, 5]: 0.2 nM

Compound: C[C@@H](Oc1cc(-c2cnn(C3CCC(F)(F)C3)c2)cc2nn(C)c(F)c12)[C@H]1CNC(=O)C1 (stereo partly shown) [Example 7]
- selectivity ratio IC50(AURB)/IC50(SYK) [1]: 20154
- IC50 [1, 3]: 26200 nM
- IC50 [2, 5]: 1.3 nM

Compound: Cc1c2c(O[C@H](C)[C@H]3CNC(=O)C3)nc(-c3c[nH]nc3C(C)(C)C)cc2nn1C [Example 4, (R)-4-{(R)-1-[6-(3-tert-Butyl-1H-pyrazol-4-yl)-2,3-dimeth-yl-2H-pyrazolo[4,3-c]pyridin-4-yloxy]-ethyl}-pyrrolidin-2-one]
- selectivity ratio IC50(AURB)/IC50(SYK) [1]: 29636
- IC50 [1, 3]: 65200 nM
- IC50 [2, 5]: 2.2 nM

Compound: C[C@@H](Oc1cc(-c2cnn(C3CCC3)c2)cc2nn(C)c(F)c12)[C@H]1CNC(=O)C1 [Example 1, (R)-4-{(R)-1-[6-(1-Cyclobutyl-1H-pyrazol-4-yl)-3-fluoro-2-methyl-2H-indazol-4-yloxy]-ethyl}-pyrrolidin-2-one]
- selectivity ratio IC50(AURB)/IC50(SYK) [1]: 34800
- IC50 [1, 3]: 34800 nM
- IC50 [2, 5]: 1 nM

Compound: Cc1c2c(O[C@H](C)[C@H]3CNC(=O)C3)cc(-c3cnn(C(C)C)c3)cc2nn1C [Example 18, (R)-4-{(R)-1-[6-(1-Isopropyl-1H-pyrazol-4-yl)-2,3-dimethyl-2H-indazol-4-yloxy]-ethyl}-pyrrolidin-2-one]
- selectivity ratio IC50(AURB)/IC50(SYK) [1]: 18323
- IC50 [1, 3]: 20200 nM
- IC50 [2, 5]: 1.1 nM

Compound: Cc1c2c(O[C@H](C)[C@H]3CNC(=O)C3)cc(-c3cnn(C4CCC(F)(F)C4)c3)cc2nn1C (stereo partly drawn) [Example 22, (R)-4-((R)-1-{6-[1-(3,3-Difluoro-cyclopentyl)-1H-pyrazol-4-yl]-2,3-dimethyl-2H-indazol-4-yloxy}-ethyl)-pyrrolidin-2-one]
- selectivity ratio IC50(AURB)/IC50(SYK) [1]: 11207
- IC50 [1, 3]: 13400 nM
- IC50 [2, 5]: 1.2 nM

Compound: C[C@@H](Oc1cc(-c2cnn(CCC(F)(F)F)c2)cc2nn(C)c(F)c12)[C@H]1CNC(=O)C1 [Example 12, (R)-4-((R)-1-{3-Fluoro-2-methyl-6-[1-(3,3,3-trifluoro-propyl)-1H-pyrazol-4-yl]-2H-indazol-4-yloxy}-ethyl)-pyrrolidin-2-one]
- selectivity ratio IC50(AURB)/IC50(SYK) [1]: 10207
- IC50 [1, 3]: 29600 nM
- IC50 [2, 5]: 2.9 nM

Compound: Cc1c2c(O[C@H](C)[C@H]3CNC(=O)C3)cc(-c3cnn(C4CC4)c3)cc2nn1C [Example 20, (R)-4-{(R)-1-[6-(1-Cyclopropyl-1H-pyrazol-4-yl)-2,3-dimethyl-2H-indazol-4-yloxy]-ethyl}-pyrrolidin-2-one]
- selectivity ratio IC50(AURB)/IC50(SYK) [1]: 13932
- IC50 [1, 3]: 34800 nM
- IC50 [2, 5]: 2.5 nM

Compound: Cc1cnn2cc(-c3cnn(C(C)(C)C)c3)cc(O[C@H](C)[C@H]3CNC(=O)C3)c12 [example 6.09 on page 559 of WO15017610, reference compound]
- selectivity ratio IC50(AURB)/IC50(SYK) [1]: 370
- IC50 [1, 3]: 37 nM
- IC50 ([1]; read-out: IC50(AURB)): 37 nM
- IC50 [2, 4]: < 10 nM
- IC50 [2, 5]: 0.1 nM

Compound: Cc1c2c(O[C@H](C)[C@H]3CNC(=O)C3)cc(-c3cnn(CCF)c3)cc2nn1C [Example 11, (R)-4-((R)-1-{6-[1-(2-Fluoro-ethyl)-1H-pyrazol-4-yl]-2,3-dimethyl-2H-indazol-4-yloxy}-ethyl)-pyrrolidin-2-one]
- selectivity ratio IC50(AURB)/IC50(SYK) [1]: 20800
- IC50 [1, 3]: 31200 nM
- IC50 [2, 5]: 1.5 nM

Compound: Cc1c2c(O[C@H](C)[C@H]3CNC(=O)C3)cc(-c3cnn(C(C)(C)C)c3)cc2nn1C [Example 13, (R)-4-{(R)-1-[6-(1-tert-Butyl-1H-pyrazol-4-yl)-2,3-dimethyl-2H-indazol-4-yloxy]-ethyl}-pyrrolidin-2-one]
- selectivity ratio IC50(AURB)/IC50(SYK) [1]: 39982
- IC50 [1, 3]: 36000 nM
- IC50 [2, 5]: 0.9 nM

Compound: Cc1cc2c(O[C@H](C)[C@H]3CNC(=O)C3)cc(-c3cnn(C(C)(C)C)c3)cn2n1 [example 6.60 on page 587 of WO15017610, reference compound]
- selectivity ratio IC50(AURB)/IC50(SYK) [1]: >4850
- IC50 [1, 3]: > 50000 nM
- IC50 ([1]; read-out: IC50(AURB)): > 50000 nM
- IC50 [2, 4]: 10.3 nM
- IC50 [2, 5]: 10.3 nM

Compound: Cc1c2c(O[C@H](C)[C@H]3CNC(=O)C3)cc(-c3cnn(C(C)(C)C#N)c3)cc2nn1C [Example 17, 2-(4-{2,3-Dimethyl-4-[(R)-1-((R)-5-oxo-pyrrolidin-3-yl)-ethoxy]-2H-indazol-6-yl}-pyrazol-1-yl)-2-methyl-propionitrile]
- selectivity ratio IC50(AURB)/IC50(SYK) [1]: 17241
- IC50 [1, 3]: 50000 nM
- IC50 [2, 5]: 2.9 nM

Compound: Cc1c2c(O[C@H](C)[C@H]3CNC(=O)C3)cc(-c3cnn(C4CC(C)(C)OC4(C)C)c3)cc2nn1C (stereo partly drawn) [Example 16, (R)-4-((R)-1-{2,3-Dimethyl-6-[1-(2,2,5,5-tetramethyl-tetrahydro-furan-3-yl)-1H-pyrazol-4-yl]2H-indazol-4-yloxy}-ethyl)-pyrrolidin-2-one]
- selectivity ratio IC50(AURB)/IC50(SYK) [1]: 14323
- IC50 [1, 3]: 44400 nM
- IC50 [2, 5]: 3.1 nM

Compound: CC(C)n1cc(-c2cc(O[C@H](C)[C@H]3CNC(=O)C3)c3c(F)n(C)nc3c2)cn1 [Example 2, (R)-4-{(R)-1-[3-Fluoro-6-(1-isopropyl-1H-pyrazol-4-yl)-2-methyl-2H-indazol-4-yloxy]-ethyl}-pyrrolidin-2-one]
- selectivity ratio IC50(AURB)/IC50(SYK) [1]: 23955
- IC50 [1, 3]: 31100 nM
- IC50 [2, 5]: 1.3 nM
